In publication PMC5281649 (European Journal of Nuclear Medicine and Molecular Imaging, 2016):
Read-outs that look alike come from different tables or passages of the source.

How the values were obtained:
MAO-A = test system: MAO-A; set-up: method as in doi:10.1016/j.jalz.2013.05.1757; conditions: MAO-B over MAO-A; cited from earlier work
brain MAO-B enzyme = target: T1, brain MAO-B enzyme (Homo sapiens, UniProt P27338); assay: PET with [11C]-L-deprenyl-D2: brain MAO-B inhibition after repeated oral sembragiline; type: in vivo; conditions: for receptor occupancy at 0.2 mg: 168 h; for receptor occupancy at 0.2 mg / receptor occupancy at 1 mg / [11C]-L-deprenyl-D2 λk3 post-dose: mean (range); for receptor occupancy at 0.2 mg / receptor occupancy at 1 mg: read-out: Occ (MAO-B occupancy); for receptor occupancy at 1 mg: 336 h
T1 sequence (P27338 1-520): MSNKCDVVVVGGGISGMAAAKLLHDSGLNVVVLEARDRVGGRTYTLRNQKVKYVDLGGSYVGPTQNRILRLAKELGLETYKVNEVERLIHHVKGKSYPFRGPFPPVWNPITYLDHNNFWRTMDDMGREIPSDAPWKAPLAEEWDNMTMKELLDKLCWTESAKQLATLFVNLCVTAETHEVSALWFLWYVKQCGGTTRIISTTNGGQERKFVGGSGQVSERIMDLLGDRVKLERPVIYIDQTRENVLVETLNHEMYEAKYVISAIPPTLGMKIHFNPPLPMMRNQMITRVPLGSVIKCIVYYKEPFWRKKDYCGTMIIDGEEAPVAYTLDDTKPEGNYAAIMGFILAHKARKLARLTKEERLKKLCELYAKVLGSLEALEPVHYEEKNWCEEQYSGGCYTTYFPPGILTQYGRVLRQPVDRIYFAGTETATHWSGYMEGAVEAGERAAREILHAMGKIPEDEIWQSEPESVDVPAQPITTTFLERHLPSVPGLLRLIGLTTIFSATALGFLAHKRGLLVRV
Method: The first dose was administered at the study centre under the supervision of study personnel. On subsequent study days, treatment compliance was assured by intake logs and tablet counting.
At baseline, each subject underwent a PET scan using [^11C]-L-deprenyl-D2 to measure MAO-B enzyme activity in the brain prior to their first dose of allocated medication. The second scan was performed at trough concentrations at steady state prior to the last drug administration. Before each scan, a cannula was inserted into a radial artery and another into an antecubital vein. A sterile phosphate buffer (pH = 7.4) containing radioligand was injected as a bolus over several seconds into the cubital vein.
A transmission scan was performed using three rotating ^68Ge rod sources. [^11C]-L-Deprenyl-D2 was injected intravenously as a bolus, and emission data were acquired over 63 min using the ECAT EXACT high-resolution system (Siemens Medical Solutions, Malvern, PA, USA). The injected radioactivity was targeted to approximately 300 MBq. The injected mass of deprenyl was to be ≤100 μg, and ≥50–100-fold lower than the typical administered dose of 5–10 mg deprenyl to patients with Parkinson’s disease. The framing was as follows: 9 frames x 10 s, 2 frames x 15 s, 3 frames x 20 s, 4 frames x 30 s, 4 frames x 60 s, 4 frames x 180 s, 7 frames x 360 s. Images were reconstructed using the standard filtered back-projection, with a 2-mm Hanning filter, a zoom factor of 2.17, and a 128 × 128 matrix, and were corrected for attenuation and scatter. A summation PET image was created for each subject and PET session by averaging across all frames. Time–activity curves were then extracted from selected ROIs.
Arterial blood samples were used for measurement of radioactivity in whole blood and plasma, as well as to determine the parent fraction of the radioligand, using a reversed-phase high-performance liquid chromatography method (Karolinska University Hospital, Solna, Stockholm, Sweden). A catheter was inserted in the radial artery, and arterial blood was collected continuously for 10 min using an automated blood sampling system at a speed of 5 mL/min. Discrete blood samples were drawn approximately 10, 15, 20, 30, 45 and 60 min after each injection of [^11C]-L-deprenyl-D2.
Time–activity data were analysed as previously described. Briefly, [^11C]-L-deprenyl-D2 was quantified by the two-tissue compartment model with three rate constants (K 1, k 2, k 3) using the PMOD 3.3 software package (PMOD Group, Zurich, Switzerland), where the tissue compartments represent the free plus non-specifically bound and specifically bound radiotracer. The outcome measure λk 3 was calculated as (K 1/k 2)*k 3, using a non-linear approach, and was used as an estimate for specific binding to MAO-B that was independent of perfusion. […] This is because λk3 is independent of perfusion and has better reproducibility than k3 alone.

[1] = EC subjects, 1 mg q.d. for 14 days, frontal cortex, N = 3

SMILES: CC(=O)N[C@H]1CC(=O)N(c2ccc(OCc3cccc(F)c3)cc2)C1 [sembragiline]
- Potency in inhibiting MAO-B relative to MAO-A (MAO-A): approximately 600 fold
- MAO-B inhibition at trough (mean values) (brain MAO-B enzyme; 1 mg, across all brain ROIs and study populations): 75–86%
- MAO-B inhibition (overall range) (brain MAO-B enzyme; 1 mg, six brain ROIs and study populations, overall): 71–88%
- MAO-B inhibition (mean values) (brain MAO-B enzyme; 5-mg dose, across brain ROIs): 76–86%
- receptor occupancy at 0.2 mg (brain MAO-B enzyme; EC subjects, 5 mg loading day 1 then 0.2 mg q.d. days 2–7, frontal cortex, N = 3): 51.7%
- receptor occupancy at 0.2 mg (brain MAO-B enzyme; EC subjects, 5 mg loading day 1 then 0.2 mg q.d. days 2–7, hippocampus, N = 3): 51.6%
- receptor occupancy at 0.2 mg (brain MAO-B enzyme; EC subjects, 5 mg loading day 1 then 0.2 mg q.d. days 2–7, parietal cortex, N = 3): 50.7%
- receptor occupancy at 0.2 mg (brain MAO-B enzyme; EC subjects, 5 mg loading day 1 then 0.2 mg q.d. days 2–7, striatum, N = 3): 56.1%
- receptor occupancy at 0.2 mg (brain MAO-B enzyme; EC subjects, 5 mg loading day 1 then 0.2 mg q.d. days 2–7, thalamus, N = 3): 53.7%
- receptor occupancy at 0.2 mg (brain MAO-B enzyme; EC subjects, 5 mg loading day 1 then 0.2 mg q.d. days 2–7, whole brain, N = 3): 49.1%
- receptor occupancy at 1 mg (brain MAO-B enzyme; [1]): 76.2%
- receptor occupancy at 1 mg (brain MAO-B enzyme; EC subjects, 1 mg q.d. for 14 days, hippocampus, N = 3): 83.9%
- receptor occupancy at 1 mg (brain MAO-B enzyme; EC subjects, 1 mg q.d. for 14 days, parietal cortex, N = 3): 76.1%
- receptor occupancy at 1 mg (brain MAO-B enzyme; EC subjects, 1 mg q.d. for 14 days, striatum, N = 3): 84.7%
- receptor occupancy at 1 mg (brain MAO-B enzyme; EC subjects, 1 mg q.d. for 14 days, thalamus, N = 3): 85.7%
- receptor occupancy at 1 mg (brain MAO-B enzyme; EC subjects, 1 mg q.d. for 14 days, whole brain, N = 3): 75.4%
- [11C]-L-deprenyl-D2 λk3 post-dose (brain MAO-B enzyme; AD patients, 1 mg q.d. for 14 days, frontal cortex, N = 2): 0.04 (0.03–0.04)
- [11C]-L-deprenyl-D2 λk3 post-dose (brain MAO-B enzyme; AD patients, 1 mg q.d. for 14 days, hippocampus, N = 2): 0.05 (0.05–0.05)
- [11C]-L-deprenyl-D2 λk3 post-dose (brain MAO-B enzyme; AD patients, 1 mg q.d. for 14 days, parietal cortex, N = 2): 0.04 (0.03–0.05)
- [11C]-L-deprenyl-D2 λk3 post-dose (brain MAO-B enzyme; AD patients, 1 mg q.d. for 14 days, striatum, N = 2): 0.04 (0.04–0.05)
- [11C]-L-deprenyl-D2 λk3 post-dose (brain MAO-B enzyme; AD patients, 1 mg q.d. for 14 days, thalamus, N = 2): 0.04 (0.04–0.04)
- [11C]-L-deprenyl-D2 λk3 post-dose (brain MAO-B enzyme; AD patients, 1 mg q.d. for 14 days, whole brain, N = 2): 0.04 (0.04–0.05)
- [11C]-L-deprenyl-D2 λk3 post-dose (brain MAO-B enzyme; AD patients, 5 mg loading day 1 then 0.1 mg q.d. days 2–15, frontal cortex, N = 2): 0.07 (0.06–0.08)
- [11C]-L-deprenyl-D2 λk3 post-dose (brain MAO-B enzyme; AD patients, 5 mg loading day 1 then 0.1 mg q.d. days 2–15, hippocampus, N = 2): 0.11 (0.10–0.11)
- [11C]-L-deprenyl-D2 λk3 post-dose (brain MAO-B enzyme; AD patients, 5 mg loading day 1 then 0.1 mg q.d. days 2–15, parietal cortex, N = 2): 0.07 (0.07–0.08)
- [11C]-L-deprenyl-D2 λk3 post-dose (brain MAO-B enzyme; AD patients, 5 mg loading day 1 then 0.1 mg q.d. days 2–15, striatum, N = 2): 0.12 (0.11–0.13)
- [11C]-L-deprenyl-D2 λk3 post-dose (brain MAO-B enzyme; AD patients, 5 mg loading day 1 then 0.1 mg q.d. days 2–15, whole brain, N = 2): 0.08 (0.08–0.09)
- [11C]-L-deprenyl-D2 λk3 post-dose (brain MAO-B enzyme; AD patients, 5 mg loading day 1 then 0.2 mg q.d. days 2–7, frontal cortex, N = 3): 0.06 (0.05–0.07)
- [11C]-L-deprenyl-D2 λk3 post-dose (brain MAO-B enzyme; AD patients, 5 mg loading day 1 then 0.2 mg q.d. days 2–7, hippocampus, N = 3): 0.07 (0.07–0.08)
- [11C]-L-deprenyl-D2 λk3 post-dose (brain MAO-B enzyme; AD patients, 5 mg loading day 1 then 0.2 mg q.d. days 2–7, parietal cortex, N = 3): 0.06 (0.05–0.07)
- [11C]-L-deprenyl-D2 λk3 post-dose (brain MAO-B enzyme; AD patients, 5 mg loading day 1 then 0.2 mg q.d. days 2–7, striatum, N = 3): 0.08 (0.08–0.08)
- [11C]-L-deprenyl-D2 λk3 post-dose (brain MAO-B enzyme; AD patients, 5 mg loading day 1 then 0.2 mg q.d. days 2–7, thalamus, N = 3): 0.07 (0.07–0.07)
- [11C]-L-deprenyl-D2 λk3 post-dose (brain MAO-B enzyme; AD patients, 5 mg loading day 1 then 0.2 mg q.d. days 2–7, whole brain, N = 3): 0.06 (0.06–0.07)
- [11C]-L-deprenyl-D2 λk3 post-dose (brain MAO-B enzyme; AD patients, 5 mg q.d. for 6–9 days, frontal cortex, N = 2): 0.04 (0.04–0.04)
- [11C]-L-deprenyl-D2 λk3 post-dose (brain MAO-B enzyme; AD patients, 5 mg q.d. for 6–9 days, hippocampus, N = 2): 0.04 (0.03–0.05)
- [11C]-L-deprenyl-D2 λk3 post-dose (brain MAO-B enzyme; AD patients, 5 mg q.d. for 6–9 days, parietal cortex, N = 2): 0.04 (0.03–0.04)
- [11C]-L-deprenyl-D2 λk3 post-dose (brain MAO-B enzyme; AD patients, 5 mg q.d. for 6–9 days, striatum, N = 2): 0.05 (0.04–0.05)
- [11C]-L-deprenyl-D2 λk3 post-dose (brain MAO-B enzyme; AD patients, 5 mg q.d. for 6–9 days, whole brain, N = 2): 0.04 (0.04–0.05)
- [11C]-L-deprenyl-D2 λk3 post-dose (brain MAO-B enzyme; [1]): 0.04 (0.04–0.05)
